The subject of assay [1] is TNFα. As to the kind of experiment: TNFα release in LPS-stimulated RAW 264.7 cells. The format is cell-based. As to conditions: Mus musculus, RAW264.7, LPS 10 ng/ml, 2.5 hours, compound pre-incubation 1 hour, read-out: TNF-alpha IC50. The procedure:
(§1) Assay for TNFα and MCP-1 Release in RAW 264.7 Cells:
(§2) Cells were seeded at a density of 50000 cells/well/100 μl in a 96 well plate and left overnight in the CO2 incubator under normal cell culture conditions for adherence. Next day, old media was removed and fresh media added per well with compounds in duplicate for 1 hour with 0.1% DMSO. Cells were stimulated with LPS (Lipopolysaccharides) at 10 ng/ml and incubated at cell culture conditions for 2.5 hours. Post incubation, the supernatant was collected in fresh 96 well plate and stored at −80 degree for TNF-α, and MCP-1 estimation.
(§3) The dose-response curve was analyzed using Sigma Plot/Graph Pad. The IC50 (concentration of the test compounds where 50% of compounds' maximal activity is observed) values were calculated from the dose-response curve.

The test system of assay [2] is MCP-1. Description: MCP-1 release in LPS-stimulated RAW 264.7 cells. The format is cell-based. As to conditions: Mus musculus, RAW264.7, LPS 10 ng/ml, 2.5 hours, compound pre-incubation 1 hour. As for the experimental part: as §1, §2, §3

Molecules are shown by their SMILES.

As usually defined, the IC50 is the concentration at which inhibition is half-maximal. `CC1(c2ccc(-c3ccc(F)cc3COc3ccc(CCCC(=O)O)cc3)cc2)CC1` [SI. No. 2, 4-(4-((4-Fluoro-4′-(1-methylcyclopropyl)-[1,1′-biphenyl]-2-yl)methoxy)phenyl)butanoic acid]: the IC50 stood at 5650 nM in assay [1] and 290 nM in assay [2].
Regarding `O=C(O)CCCc1ccc(OCc2cc(F)ccc2-c2ccc(C3CC3)s2)cc1` [SI. No. 8, 4-(4-((2-(5-Cyclopropylthiophen-2-yl)-S-fluorobenzyl)oxy)phenyl)butanoic acid], the IC50 in assay [1] is above 10000 nM; in assay [2], 2040 nM.
In the case of `CC1(c2ccc(-c3ccc(F)cc3COc3ccc(CCCC(=O)O)cc3)s2)CC1` [SI. No. 20, 4-(4-((5-Fluoro-2-(5-(1-methylcyclopropyl)thiophen-2-yl)benzyl)oxy)phenyl) butanoic acid], the IC50 in assay [1] is 660 nM; in assay [2], 1080 nM.
For `O=C(O)CCCc1ccc(OCc2cc(F)ccc2-c2ncc(C3CC3)s2)cc1` [SI. No. 24, 4-(4-((2-(5-Cyclopropylthiazol-2-yl)-S-fluorobenzyl)oxy)phenyl)butanoic acid], the figures for the IC50 in assay [1] and in assay [2] were 630 nM and 230 nM, respectively.

Source of the values: patent publication US20210236443A1, “METHOD OF TREATMENT OF NON-ALCOHOLIC STEATOHEPATITIS, NASH” (KRISH BIOTECH RESEARCH PRIVATE LIMITED, priority 2018, published 2021).
